# Assay results published in ChEMBL document CHEMBL3832028, “DailyMed|setid=372af566-d6ec-446f-88db-0b4cc83b577f | GLYBURIDE AND METTFORMIN HYDROCHLORIDE - glyburide and hydrochloride tablet, film coated| Citron Pharma LLC”.
# Assay: Tmax for Glyburide following single oral co-administration of 5 mg glyburide and 500 mg metformin hydrochloride to feeding subjects.
# Assay type: ADME, organism-based
# Details: human, in vivo, dietary status Fed, dosed compound id 13, dosed compound name GLYBURIDE, regimen Single dose, tissue Plasma
structure (smiles),measurement,value
COc1ccc(Cl)cc1C(=O)NCCc1ccc(S(=O)(=O)NC(=O)NC2CCCCC2)cc1 [GLYBURIDE],Tmax,2.75 h
